Assay results reported in patent publication US20250360148A1, “SOLID DISPERSIONS OF PSILOCYBIN” (Cybin IRL Limited, priority 2022, published 2025).
Marks after values point to notes of the source that are not given here.

Experiments:
[1] = XRPD characterization of freeze-dried solid dispersions, physical mixtures and starting material; type: physicochemical; conditions: as prepared; solid form of psilocybin (PY) in freeze-dried dispersion, physical mixture or starting material
Procedure: The samples were prepared in silicon low background holders using light manual pressure to keep the sample surface flat and level with the reference surface of the sample holder. The single crystal Si low background holder has a circular recess (10 mm diameter and about 0.2 mm depth) that holds the sample.
The Rigaku Smart-Lab diffraction system used was configured for Bragg-Brentano reflection geometry using a line source X-ray beam. The Bragg-Brentano geometry was controlled by passive divergence and receiving slits with the sample itself acting as the focusing component for the optics. The figures were created using PlotMon V2.1.1.0.
High-resolution XRPD analysis was performed using Rigaku Smart-Lab diffraction system configured for Debye-Scherrer transmission geometry. The Debye-Scherrer convergent beam geometry utilizes a curved x-ray mirror to focus the incident beam through the sample and onto the detector plane. The axial divergence of the X-ray beam was controlled by 5.0° Soller slits in both the incident and diffracted beam paths.
Freeze-dried solid dispersions of Examples 1-5, and corresponding Reference Examples, were characterized using X-ray powder diffraction (XRPD).

[2] = Characterization and 40° C. closed-vial stability of spray dried solid dispersions (XRPD, mDSC, TGA); type: physicochemical; conditions: t = 0, spray dried
Procedure: X-ray power diffraction (XRPD): XRPD patterns were collected on a Bruker AXS D2 diffractometer using Cu Kα radiation (30 kV, 10 mA), […], using a LynxEye detector from 5-42 °2θ.
The details of the data collection are: • Angular range: 5 to 42 °2θ • Step size: 0.024° 2θ • Collection time: 0.1 seconds per step.
Samples were run under ambient conditions and prepared as flat plate specimens using powder without grinding. Approximately 1-2 mg of the sample was lightly pressed on a silicon wafer to obtain a flat surface.
Modulated differential scanning calorimetry (mDSC): TOPEM® is a temperature modulated DSC method which differs from conventional DSC in allowing the total heat flow to be separated into reversing and non-reversing heat flow components. Such techniques help distinguish between processes or transitions that overlap or lie very close to one another. The glass transition temperature (Tg) was determined from the reversible heatflow component.
TOPEM® DSC data were collected on a Mettler DSC 3+ equipped with a 34 position auto-sampler. The instrument was calibrated for energy and temperature using certified indium. Typically, 3-5 mg of each sample, in a pin-holed aluminium pan, was heated at 2 K·min^−1 from 30° C. to 220° C. with a pulse height of 0.64 K and a pulse width 15-30 sec. A nitrogen purge at 50 mL·min^−1 was maintained over the sample. […]

[3] = cited from earlier work

Structure (SMILES): CN(C)CCc1c[nH]c2cccc(OP(=O)(O)O)c12 [Crystalline PY starting material, 3-(2-(dimethylamino)ethyl)-1H-indol-4-yl dihydrogen phosphate]
- XRPD Results [1]: crystalline PY (methanol solvate)^a

Structure (SMILES): CN(C)CCc1c[nH]c2cccc(OP(=O)(O)O)c12 [Psilocybin (PY), 3-(2-(dimethylamino)ethyl)-1H-indol-4-yl dihydrogen phosphate]
- XRPD [2]: Amorphous
- Tg ([2]; mDSC): 161 °C

Structure (SMILES): CN(C)CCc1c[nH]c2cccc(OP(=O)(O)O)c12 [amorphous psilocybin]
- Tg (midpoint) ([3]; reported by Greenan et al.): 163 °C
- physical stability of the amorphous form without polymer ([3]; variety of stress conditions, Greenan et al.): known to crystallize
